Reference: US5538973A, “Imidazole derivative, pharmaceutical use thereof, and intermediate therefor” (Kyoto Pharmaceutical Industries, Ltd., priority 1992, dated 1996)
Structures can show the parent of a compound that is named as a salt. Where two headings read alike, the source gives them in different places.

Legend:
[1] = tested on: blood platelet aggregation; experiment: Inhibitory action on blood platelet aggregation (arachidonic acid aggregation in rich platelet plasma, nephelometry); assay type: cell-based; conditions: arachidonic acid 0.1 mM, test drug added 1 minute before, read-out: Exp. 2 (IC50) inhibitory action on blood platelet aggregation
Procedure: Arachidonic acid aggregation in rich platelet plasma was determined by nephelometry. The test drug was added 1 minute before the addition of the arachidonic acid (0.1 mM).
(§1) The experiments 1-4 described above were conducted using the compounds of Examples 1, 2, 6, 8, 12, 14, 19, 23, 27, 30, 34, and 35 to be mentioned below, compound (V), and Terfenadine, the results of which are shown in Table 1.

[2] = tested on: contraction of lung parenchymal specimen by histamine; experiment: Antihistaminic action: contraction of lung parenchymal specimen caused by histamine; assay type: cell-based; conditions: test compound 10^-5 M, histamine 10^-5 M, guinea pig lung parenchyma; for inhibition at 10 µM: Cavia porcellus, read-out: Exp. 3 % at which the test compound suppressed contraction by histamine
Procedure: A lung parenchymal specimen extracted from guinea pig was hung in a nutritive solution at 37° C., and applied a load of 0.5 g. Contraction caused by histamine under aeration of 95% O2 +5% CO2 was recorded isometrically. The inhibition by the test drug with respect to the dose-reaction curve by histamine at 10^-7 -10^-4 was examined.
as §1
*% at which the test compound (10^-5 M) suppressed contraction by […]

[3] = tested on: airway contraction by histamine; experiment: Inhibitory action on contraction of respiratory tract by histamine (Konzett and Roessler method); assay type: in vivo, guinea pig; conditions: for inhibition in vivo at 30 mg/kg: Cavia porcellus, po, 1 h, read-out: Exp. 4-1 % at which the test compound suppressed airway contraction by histamine
Procedure: (§2) A respiratory tract contraction (histamine, LTD4) was intravenously administered to anesthetized guinea pig, and a change in airway resistance was measured in accordance with Konzett end Roessler method. The test drug was orally administered 1 hour before the administration of the contraction inducing agent.
as §1
(§3) **% at which the test compound (30 mg/kg, p.o.) suppressed airway
(§4) contraction by histamine (41) or LTD4 (42)

[4] = tested on: airway contraction by LTD4; experiment: Inhibitory action on contraction of respiratory tract by LTD4 (Konzett and Roessler method); assay type: in vivo, guinea pig; conditions: for inhibition in vivo at 30 mg/kg: Cavia porcellus, po, 1 h, read-out: Exp. 4-2 % at which the test compound suppressed airway contraction by LTD4
Procedure: as §2, §1, §3, §4

synthesis of TXA2 = experiment: Inhibitory action on synthesis of TXA2 (PGH2 substrate, aspirin-treated platelets, TXB2 by RIA); assay type: cell-based; conditions: Platelet, read-out: Exp. 1 (IC50) inhibitory action on synthesis of TXA2
Procedure: Prostaglandin H2 (PGH2) was added as a substrate to an aspirin-treated platelet floating solution, and the mixture was incubated at 37° C. The resultant TXA2 was converted to TXB2, and measured by RIA method. The test drug was added 10 minutes before the addition of PGH2.
as §1

male ddy mice = experiment: Acute toxicity, oral, male ddy mice; assay type: in vivo; conditions: 1000 mg/20 ml/kg orally, 5 male ddy mice
Procedure: The compound of Example 6 was suspended in a 5% gum arabic solution and orally administered to 5 male ddy mice at 1000 mg/20 ml /kg.

[5] = 30 mg/kg, p.o., 1 hour before histamine i.v., anesthetized guinea pig
[6] = 30 mg/kg, p.o., 1 hour before LTD4 i.v., anesthetized guinea pig
[7] = test drug added 10 minutes before PGH2, 37° C.

SMILES | IC50 ([1]; Platelet) [µM] | inhibition at 10 µM [2] [%] | inhibition in vivo at 30 mg/kg [3, 5] [%] | inhibition in vivo at 30 mg/kg [4, 6] [%] | inhibition in vivo at 30 mg/kg [3] [%] | inhibition in vivo at 30 mg/kg [4] [%] | also measured
O=C(O)c1ccc2c(c1)c(CCn1ccnc1)cn2CCCN1CCC(Cc2ccccc2)CC1 [Example 34] | > 100 | 58 | 90 | 31 |  |  | 
c1ccc(C(c2ccccc2)N2CCN(CCCn3ccc4cc(-n5ccnc5)ccc43)CC2)cc1 [Example 19] | 21 | 45 | 94 | 40 |  |  | 
O=C(CN1CCN(CCOC(c2ccccc2)c2ccccc2)CC1)N1CCc2cc(Cn3ccnc3)ccc21 [Example 14] | 58 | 45 |  |  | 100 | 42 | 
O=C(O)c1ccc2c(c1)c(CCn1ccnc1)cn2CCCN1CCN(CCOC(c2ccccc2)c2ccccc2)CC1 [Example 35] | 71 | 100 |  |  | 100 | 18 | 
O=C(N1CCN(CCOC(c2ccccc2)c2ccccc2)CC1)N1CCc2cc(Cn3ccnc3)ccc21 [Example 12] | 18 | 61 |  |  | 100 | 64 | 
CC(C)(C)c1ccc(C(O)CCCN2CCC(C(O)(c3ccccc3)c3ccccc3)CC2)cc1 (centres unmarked) [Terfenadine, reference compound] |  | 48 | 100 | 27 |  |  | 
O=C(COCCN1CCN(C(c2ccccc2)c2ccccc2)CC1)N1CCc2cc(-n3ccnc3)ccc21 [Example 1, 1-[2-(4-benzhydryl-1-piperazinyl)ethoxyacetyl]-5-(1H-imidazol-1-yl)indoline oxalate] | 4.4 | 95 | 100 | 73 |  |  | 
O=C(O)c1ccc2c(Cn3ccnc3)cn(CCCN3CCC(Cc4ccccc4)CC3)c2c1 [Example 30] | 9.9 | 100 | 100 | 26 |  |  | 
O=C(O)c1cc2cc(Cn3ccnc3)ccc2n1CCCN1CCN(C(c2ccccc2)c2ccccc2)CC1 [Example 23] |  |  |  |  |  |  | IC50 ([1]; listed as Ex. 23): 34 µM; Exp. 3 % at which the test compound suppressed contraction by histamine ([2]; 10 µM): 94%; Exp. 4-1 % at which the test compound suppressed airway contraction by histamine [3, 5]: 94%; Exp. 4-2 % at which the test compound suppressed airway contraction by LTD4 [4, 6]: 53%
O=C(O)C=Cc1ccc(Cn2ccnc2)cc1 [Compound (V), reference compound] | 54 | 8 | 4 | 57 |  |  | IC50 (synthesis of TXA2; [7]): 1.5 µM
O=C(CN1CCN(CCOC(c2ccccc2)c2ccccc2)CC1)N1CCc2cc(-n3ccnc3)ccc21 [Example 8] | 2.1 | 55 |  |  | 100 | 87 | 
c1ccc(CC2CCN(CCn3ccc4cc(-n5ccnc5)ccc43)CC2)cc1 [Example 27] | > 100 | 58 | 100 | 68 |  |  | 
O=C(N1CCN(CCOC(c2ccccc2)c2ccccc2)CC1)N1CCc2cc(-n3ccnc3)ccc21 [Example 2, 1-{4-[(2-benzhydryloxyethyl)-1-piperazinyl]-carbonyl}-5-(1H-imidazol-1-yl)indoline oxalate] | 4.7 | 66 |  |  | 100 | 83 | IC50 (synthesis of TXA2): 1.5 µM
Cl.Cl.Cl.O=C(O)c1cc2cc(Cn3ccnc3)ccc2n1CCCN1CCN(C(c2ccccc2)c2ccccc2)CC1 [Example 6, 1-[3-(4-benzhydryl-1-piperazinyl)propyl]-5-(1H-imidazol-1-ylmethyl)-1H-indole-2-carboxylic acid trihydrochloride] |  | 100 | 100 |  |  |  | IC50 (synthesis of TXA2; [7]): 0.4 µM; IC50 ([1]; listed as Ex. 6, trihydrochloride): 8.1 µM; Exp. 4-2 % at which the test compound suppressed airway contraction by LTD4 [4, 6]: 75%; death (male ddy mice): No death was observed
